Measurements: article PMC11379888 (Nature Communications, 2024)
Values after ≈ are worked out from the molar mass of the structure shown. Where two headings read alike, the source gives them in different places.

Key:
[1] = test system: Cdr1 overexpressed in Pdr5-knocked-out S. cerevisiae; type: cell-based
[2] = molecular target: purified Cdr1 (Candida albicans, UniProt Q5ANA3); test: ATPase activity assay; type: biochemical, C. albicans; details: drug ten times Cdr1 concentration (4 μM vs 0.4 μM), GDN, relative to DMSO
purified Cdr1, sequence (Q5ANA3 whole entry, the tested form may be a part): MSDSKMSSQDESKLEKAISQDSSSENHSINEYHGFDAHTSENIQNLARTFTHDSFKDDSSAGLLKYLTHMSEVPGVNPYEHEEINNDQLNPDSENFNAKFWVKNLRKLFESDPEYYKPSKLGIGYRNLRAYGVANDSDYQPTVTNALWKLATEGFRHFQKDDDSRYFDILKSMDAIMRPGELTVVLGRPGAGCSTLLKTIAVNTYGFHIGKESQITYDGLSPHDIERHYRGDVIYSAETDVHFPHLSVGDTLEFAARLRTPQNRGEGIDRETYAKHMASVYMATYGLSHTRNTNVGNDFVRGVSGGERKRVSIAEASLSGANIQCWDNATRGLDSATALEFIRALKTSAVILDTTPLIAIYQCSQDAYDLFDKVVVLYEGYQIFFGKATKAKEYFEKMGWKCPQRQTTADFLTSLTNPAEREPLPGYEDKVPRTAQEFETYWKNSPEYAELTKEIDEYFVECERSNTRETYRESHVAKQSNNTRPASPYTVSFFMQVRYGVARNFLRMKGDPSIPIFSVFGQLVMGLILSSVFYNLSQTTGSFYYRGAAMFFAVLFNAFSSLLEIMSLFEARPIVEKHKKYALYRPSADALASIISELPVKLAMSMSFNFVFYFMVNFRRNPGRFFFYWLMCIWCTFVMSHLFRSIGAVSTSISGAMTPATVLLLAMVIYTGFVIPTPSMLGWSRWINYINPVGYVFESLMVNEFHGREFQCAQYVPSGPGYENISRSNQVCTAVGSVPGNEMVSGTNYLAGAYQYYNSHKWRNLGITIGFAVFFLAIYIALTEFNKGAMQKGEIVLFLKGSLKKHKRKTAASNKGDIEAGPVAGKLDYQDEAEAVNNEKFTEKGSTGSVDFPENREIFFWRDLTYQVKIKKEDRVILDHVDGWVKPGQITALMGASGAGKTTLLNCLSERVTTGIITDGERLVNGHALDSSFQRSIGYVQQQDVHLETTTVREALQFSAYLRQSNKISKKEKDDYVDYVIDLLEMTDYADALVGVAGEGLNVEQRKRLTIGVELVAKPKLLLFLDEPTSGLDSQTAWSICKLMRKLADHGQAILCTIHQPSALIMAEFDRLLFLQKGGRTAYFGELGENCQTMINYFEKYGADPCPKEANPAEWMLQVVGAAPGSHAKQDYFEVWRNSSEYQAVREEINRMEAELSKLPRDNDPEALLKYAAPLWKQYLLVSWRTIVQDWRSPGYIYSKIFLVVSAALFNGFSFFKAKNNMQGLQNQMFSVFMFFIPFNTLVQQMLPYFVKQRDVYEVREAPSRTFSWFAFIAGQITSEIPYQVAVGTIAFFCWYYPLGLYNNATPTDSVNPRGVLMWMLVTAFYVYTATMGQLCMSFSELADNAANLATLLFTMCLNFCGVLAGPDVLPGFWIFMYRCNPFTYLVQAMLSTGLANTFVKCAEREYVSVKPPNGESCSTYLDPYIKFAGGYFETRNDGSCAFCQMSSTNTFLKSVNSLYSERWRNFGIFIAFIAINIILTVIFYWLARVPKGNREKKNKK

[3] = molecular target: Cdr1 fused with EGFP (Candida albicans, UniProt Q5ANA3); test: Microscale thermophoresis; type: binding, C. albicans
Cdr1 fused with EGFP, sequence (Q5ANA3 whole entry, the tested form may be a part): as above

[4] = test system: azole-resistant clinical C. albicans isolates; details: cited from earlier work
[5] = test system: C. albicans Cdr1; details: cited from earlier work
[6] = test system: C. albicans Cdr2; details: cited from earlier work
[7] = test system: Pdr5-deficient S. cerevisiae (empty vector); test: microbe, parasite or virus in culture; type: cell-based; details: Saccharomyces cerevisiae, 48 h, read-out: IC50 (fluconazole-sensitivity, OD600nm)
[8] = test system: C. albicans Cdr1 overexpressed in Pdr5-deficient S. cerevisiae; test: organism not typed; type: cell-based; details: 48 h, read-out: IC50 (fluconazole-sensitivity, OD600nm)

Row | Molecule | selectivity of inhibition Cdr1 vs Pdr5 ([1]; […], 1 μg/mL fluconazole, 0.1 μg/mL milbemycin oxime) | IC50 (milbemycin oxime-sensitivity, OD600nM) ([1]; with 1 µg/mL fluconazole) [µg/mL] | IC50 (milbemycin oxime-sensitivity, OD600nM) ([1]; with 10 µg/mL fluconazole) [µg/mL] | ATP hydrolysis (relative ATPase activity, mean) [2] | Kd ([3]; read-out: dissociation constant (Kd), 100 nM Cdr1, PBS 0.02% DDM, 25 °C) [µM] | synergy with fluconazole [4] | inhibition of Cdr1 [5] | inhibition of Cdr2 [6] | IC50 [7] [µg/mL] | IC50 [8] [µg/mL] | Kd [3] [µM]
1 | milbemycin oxime | selectively inhibits Cdr1 rather than Pdr5 | 0.034 | 0.009 | 25.7% | 0.147 | strong synergistic effects with fluconazole |  |  |  |  | 
2 | milbemycin α25 |  |  |  |  |  |  | potent inhibition | potent inhibition |  |  | 
3 | OC(Cn1cncn1)(Cn1cncn1)c1ccc(F)cc1F [fluconazole] |  |  |  | decreases slightly |  |  |  |  | 0.31 (≈ 1.01 µM) | 56.6 (≈ 185 µM) | 61.4
